Laboratory results from patent US20080312271A1, “AZABENZIMIDAZOLYL COMPOUNDS” (Pfizer Inc., priority 2006, published 2008).

Target: T1, mGluR2 receptor (metabotropic glutamate receptor 2) (Homo sapiens, UniProt Q14416)
T1 construct: expressed in transfected cells
Assay: mGluR2 Potentiator Screen, FLIPR, EC10-EC20 glutamate challenge
Format: cell-based
Settings: mGluR2 potentiator screen, FLIPR, EC10-EC20 glutamate challenge
Procedure, shortened: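 Potentiator assay in HEK cells stably expressing mGluR2 with Gα15, glutamine-depleted overnight, loaded with Fluo-4 plus probenecid and GPT/pyruvate to remove glutamate. Peak fluorescence ratio curve-fitted, with maximum set by on-plate standards.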

T1 sequence (Q14416 19-872, species assumed): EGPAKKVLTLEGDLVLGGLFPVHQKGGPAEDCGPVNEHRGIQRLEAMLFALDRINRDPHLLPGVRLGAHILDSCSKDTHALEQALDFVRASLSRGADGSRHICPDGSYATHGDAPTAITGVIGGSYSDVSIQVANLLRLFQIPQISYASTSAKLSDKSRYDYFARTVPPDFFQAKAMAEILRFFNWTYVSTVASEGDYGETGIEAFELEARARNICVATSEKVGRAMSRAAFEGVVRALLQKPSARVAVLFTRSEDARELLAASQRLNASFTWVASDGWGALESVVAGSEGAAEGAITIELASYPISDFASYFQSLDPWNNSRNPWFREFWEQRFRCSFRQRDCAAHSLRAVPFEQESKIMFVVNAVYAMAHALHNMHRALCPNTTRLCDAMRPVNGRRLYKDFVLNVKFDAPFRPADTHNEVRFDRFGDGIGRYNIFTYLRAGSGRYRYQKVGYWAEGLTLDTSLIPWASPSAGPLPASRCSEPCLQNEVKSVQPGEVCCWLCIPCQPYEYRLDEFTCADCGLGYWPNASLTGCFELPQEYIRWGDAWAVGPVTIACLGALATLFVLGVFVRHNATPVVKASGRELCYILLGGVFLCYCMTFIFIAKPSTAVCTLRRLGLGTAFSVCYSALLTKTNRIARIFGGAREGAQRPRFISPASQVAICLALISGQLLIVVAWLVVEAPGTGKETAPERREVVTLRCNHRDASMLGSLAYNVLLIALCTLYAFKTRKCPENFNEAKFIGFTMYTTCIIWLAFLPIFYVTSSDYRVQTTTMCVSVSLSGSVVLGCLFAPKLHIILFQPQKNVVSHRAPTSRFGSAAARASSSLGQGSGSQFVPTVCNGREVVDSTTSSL

**Q.** `COc1cc(OC(F)(F)F)ccc1C1CCN(Cc2nc3ncccc3n2C)CC1` [compound 281] was tested. Which EC50 did it give?
**A.** Its EC50 is 99.7 nM.
